Test results from patent publication US10004701B2, “Methods and compositions for treating infection” (UNIVERSITY OF ROCHESTER, priority 2012, dated 2018).
Counter-ions that a name gives are not always drawn. Like-named read-outs stand apart in the source and are kept apart here.

Key:
Test in all cases: AK assay 384-well format, Prestwick library screening
[1] = test system: S. aureus strain USA300-0114; type: cell-based, Staphylococcus aureus; conditions: 50 μM final drug concentration; for fold induction at 50 µM: Staphylococcus aureus, USA300, 3 h
E. faecium = type: cell-based, Enterococcus faecium; conditions: 50 μM final drug concentration; for fold induction at 50 µM: Enterococcus faecium, 3 h
K. pneumoniae = type: cell-based, Klebsiella pneumoniae; conditions: 50 μM final drug concentration; for fold induction at 50 µM: Klebsiella pneumoniae, 3 h
P. aeruginosa = type: cell-based, Pseudomonas aeruginosa; conditions: 50 μM final drug concentration; for fold induction at 50 µM: Pseudomonas aeruginosa, 3 h
[2] = test system: A. baumannii strain 98-37-09; type: cell-based, Acinetobacter baumannii; conditions: 50 μM final drug concentration; for fold induction at 50 µM: Acinetobacter baumannii, 983709, 3 h
E. coli = type: cell-based, Escherichia coli; conditions: 50 μM final drug concentration; for fold induction at 50 µM: Escherichia coli, 3 h
E. cloacae = type: cell-based, Enterobacter cloacae; conditions: 50 μM final drug concentration; for fold induction at 50 µM: Enterobacter cloacae, 3 h
[3] = planktonic, cutoff for positive 3-fold increase, read-out: AK-based Prestwick Library Screening Results, S. aureus (fold increase in extracellular AK activity)
[4] = planktonic, cutoff for positive 3-fold increase, read-out: AK-based Prestwick Library Screening Results, E. faecium (fold increase in extracellular AK activity)
[5] = planktonic, cutoff for positive 3-fold increase, read-out: AK-based Prestwick Library Screening Results, K. pneumoniae (fold increase in extracellular AK activity)
[6] = planktonic, cutoff for positive 3-fold increase, read-out: AK-based Prestwick Library Screening Results, P. aeruginosa (fold increase in extracellular AK activity)
[7] = planktonic, cutoff for positive 3-fold increase, read-out: AK-based Prestwick Library Screening Results, A. baumannii (fold increase in extracellular AK activity)
[8] = planktonic, cutoff for positive 3-fold increase, read-out: AK-based Prestwick Library Screening Results, E. coli (fold increase in extracellular AK activity)
[9] = planktonic, cutoff for positive 3-fold increase, read-out: AK-based Prestwick Library Screening Results, E. cloacae (fold increase in extracellular AK activity)
[10] = planktonic S. aureus, 384-well, cutoff for positive-scoring molecules 3-fold increase, read-out: AK-based Prestwick Library Screening Results: S. aureus (increase in extracellular AK activity)
[11] = planktonic E. faecium, 384-well, cutoff for positive-scoring molecules 3-fold increase, read-out: AK-based Prestwick Library Screening Results: E. faecium (increase in extracellular AK activity)
[12] = planktonic K. pneumoniae, 384-well, cutoff for positive-scoring molecules 3-fold increase, read-out: AK-based Prestwick Library Screening Results: K. pneumoniae (increase in extracellular AK activity)
[13] = planktonic P. aeruginosa, 384-well, cutoff for positive-scoring molecules 3-fold increase, read-out: AK-based Prestwick Library Screening Results: P. aeruginosa (increase in extracellular AK activity)
[14] = planktonic A. baumannii, 384-well, cutoff for positive-scoring molecules 3-fold increase, read-out: AK-based Prestwick Library Screening Results: A. baumannii (increase in extracellular AK activity)
[15] = planktonic E. coli, 384-well, cutoff for positive-scoring molecules 3-fold increase, read-out: AK-based Prestwick Library Screening Results: E. coli (increase in extracellular AK activity)
[16] = planktonic E. cloacae, 384-well, cutoff for positive-scoring molecules 3-fold increase, read-out: AK-based Prestwick Library Screening Results: E. cloacae (increase in extracellular AK activity)
[17] = cutoff for positive-scoring molecules 3-fold increase, read-out: AK-based Prestwick Library Screening Results, S. aureus (fold increase in extracellular AK activity)
[18] = cutoff for positive-scoring molecules 3-fold increase, read-out: AK-based Prestwick Library Screening Results, E. faecium (fold increase in extracellular AK activity)
[19] = cutoff for positive-scoring molecules 3-fold increase, read-out: AK-based Prestwick Library Screening Results, K. pneumoniae (fold increase in extracellular AK activity)
[20] = cutoff for positive-scoring molecules 3-fold increase, read-out: AK-based Prestwick Library Screening Results, P. aeruginosa (fold increase in extracellular AK activity)
[21] = cutoff for positive-scoring molecules 3-fold increase, read-out: AK-based Prestwick Library Screening Results, A. baumannii (fold increase in extracellular AK activity)
[22] = cutoff for positive-scoring molecules 3-fold increase, read-out: AK-based Prestwick Library Screening Results, E. coli (fold increase in extracellular AK activity)
[23] = cutoff for positive-scoring molecules 3-fold increase, read-out: AK-based Prestwick Library Screening Results, E. cloacae (fold increase in extracellular AK activity)

CC(=O)SCC(Cc1ccccc1)C(=O)NCC(=O)OCc1ccccc1 (stereo not shown) [Racecadotril]
fold induction at 50 µM [1, 3]: 1.9
fold induction at 50 µM (E. faecium; [4]): 1
fold induction at 50 µM (K. pneumoniae; [5]): 1.1
fold induction at 50 µM (P. aeruginosa; [6]): 1.2
fold induction at 50 µM [2, 7]: 1.3
fold induction at 50 µM (E. coli; [8]): 1.2
fold induction at 50 µM (E. cloacae; [9]): 1.5

c1ccc(CC2=NCCN2)cc1 [Tolazoline hydrochloride]
fold induction at 50 µM [1, 10]: 1.2
fold induction at 50 µM (E. faecium; [11]): 1
fold induction at 50 µM (K. pneumoniae; [12]): 1
fold induction at 50 µM (P. aeruginosa; [13]): 1.1
fold induction at 50 µM [2, 14]: 1.3
fold induction at 50 µM (E. coli; [15]): 1.4
fold induction at 50 µM (E. cloacae; [16]): 1.5

C=C[C@H]1C[N@@]2CC[C@H]1C[C@@H]2[C@@H](O)c1ccnc2ccccc12 [Cinchonine]
fold induction at 50 µM [1, 3]: 1.6
fold induction at 50 µM (E. faecium; [4]): 1.1
fold induction at 50 µM (K. pneumoniae; [5]): 1
fold induction at 50 µM (P. aeruginosa; [6]): 1.1
fold induction at 50 µM [2, 7]: 1.1
fold induction at 50 µM (E. coli; [8]): 1.2
fold induction at 50 µM (E. cloacae; [9]): 1.5

C[C@@H]1O[C@@H](O[C@H]2[C@H](Oc3cc(O)c4c(c3)O[C@H](c3ccc(O)cc3)CC4=O)O[C@H](CO)[C@@H](O)[C@@H]2O)[C@H](O)[C@H](O)[C@H]1O [Naringin hydrate]
fold induction at 50 µM [1, 3]: 1.2
fold induction at 50 µM (E. faecium; [4]): 1
fold induction at 50 µM (K. pneumoniae; [5]): 0.9
fold induction at 50 µM (P. aeruginosa; [6]): 1.3
fold induction at 50 µM [2, 7]: 1.2
fold induction at 50 µM (E. coli; [8]): 1.3
fold induction at 50 µM (E. cloacae; [9]): 1.2

Cc1[nH]ccc2c1[nH]c1cc(=O)ccc12 [Harmol hydrochloride monohydrate]
fold induction at 50 µM ([1]; planktonic, […], read-out: AK-based Prestwick Library Screening Results, S. aureus (fold increase in extracellular AK activity)): 0.9
fold induction at 50 µM (E. faecium; planktonic, […], read-out: AK-based Prestwick Library Screening Results, E. faecium (fold increase in extracellular AK activity)): 1
fold induction at 50 µM (K. pneumoniae; planktonic, […], read-out: AK-based Prestwick Library Screening Results, K. pneumoniae (fold increase in extracellular AK activity)): 0.9
fold induction at 50 µM (P. aeruginosa; planktonic, […], read-out: AK-based Prestwick Library Screening Results, P. aeruginosa (fold increase in extracellular AK activity)): 1.1
fold induction at 50 µM ([2]; planktonic, […], read-out: AK-based Prestwick Library Screening Results, A. baumannii (fold increase in extracellular AK activity)): 1.1
fold induction at 50 µM (E. coli; planktonic, […], read-out: AK-based Prestwick Library Screening Results, E. coli (fold increase in extracellular AK activity)): 1.4
fold induction at 50 µM (E. cloacae; planktonic, […], read-out: AK-based Prestwick Library Screening Results, E. cloacae (fold increase in extracellular AK activity)): 1.6

C=C1c2cccc(O)c2C(=O)C2=C(O)[C@]3(O)C(=O)C(C(N)=O)=C(O)[C@@H](N(C)C)[C@@H]3[C@@H](O)[C@H]12 [Methacycline hydrochloride]
fold induction at 50 µM [1, 17]: 1.9
fold induction at 50 µM (E. faecium; [18]): 0.9
fold induction at 50 µM (K. pneumoniae; [19]): 0.2
fold induction at 50 µM (P. aeruginosa; [20]): 0.2
fold induction at 50 µM [2, 21]: 4.2
fold induction at 50 µM (E. coli; [22]): 3.2
fold induction at 50 µM (E. cloacae; [23]): 0.4

CC(=O)Nc1ccc(O)cc1 [Acetaminophen]
fold induction at 50 µM [1, 17]: 1.6
fold induction at 50 µM (E. faecium; [18]): 1
fold induction at 50 µM (K. pneumoniae; [19]): 1.2
fold induction at 50 µM (P. aeruginosa; [20]): 1.1
fold induction at 50 µM [2, 21]: 1.5
fold induction at 50 µM (E. coli; [22]): 1.4
fold induction at 50 µM (E. cloacae; [23]): 1.6

CCN(CC)C(C)CN1c2ccccc2Sc2ccccc21 (stereo not shown) [Ethopropazine hydrochloride]
fold induction at 50 µM ([1]; planktonic, cutoff for positive-scoring molecules 3-fold increase, read-out: AK-based Prestwick Library Screening Results, S. aureus (fold increase in extracellular AK activity)): 0.7
fold induction at 50 µM (E. faecium; planktonic, cutoff for positive-scoring molecules 3-fold increase, read-out: AK-based Prestwick Library Screening Results, E. faecium (fold increase in extracellular AK activity)): 0.9
fold induction at 50 µM (K. pneumoniae; planktonic, cutoff for positive-scoring molecules 3-fold increase, read-out: AK-based Prestwick Library Screening Results, K. pneumoniae (fold increase in extracellular AK activity)): 0.8
fold induction at 50 µM (P. aeruginosa; planktonic, cutoff for positive-scoring molecules 3-fold increase, read-out: AK-based Prestwick Library Screening Results, P. aeruginosa (fold increase in extracellular AK activity)): 1
fold induction at 50 µM ([2]; planktonic, cutoff for positive-scoring molecules 3-fold increase, read-out: AK-based Prestwick Library Screening Results, A. baumannii (fold increase in extracellular AK activity)): 1
fold induction at 50 µM (E. coli; planktonic, cutoff for positive-scoring molecules 3-fold increase, read-out: AK-based Prestwick Library Screening Results, E. coli (fold increase in extracellular AK activity)): 0.9
fold induction at 50 µM (E. cloacae; planktonic, cutoff for positive-scoring molecules 3-fold increase, read-out: AK-based Prestwick Library Screening Results, E. cloacae (fold increase in extracellular AK activity)): 1.3

CSc1ccc2c(c1)N(CCC1CCCCN1C)c1ccccc1S2 (stereo not shown) [Thioridazine hydrochloride]
fold induction at 50 µM [1, 10]: 1.3
fold induction at 50 µM (E. faecium; [11]): 1
fold induction at 50 µM (K. pneumoniae; [12]): 1.3
fold induction at 50 µM (P. aeruginosa; [13]): 1.1
fold induction at 50 µM [2, 14]: 2.9
fold induction at 50 µM (E. coli; [15]): 1.6
fold induction at 50 µM (E. cloacae; [16]): 1.5

Cyanocobalamin
AK-based Prestwick Library Screening Results, S. aureus (increase in extracellular AK activity) ([1]; planktonic S. aureus, cutoff for positive-scoring molecules 3-fold increase): 0.5
AK-based Prestwick Library Screening Results, E. faecium (increase in extracellular AK activity) (E. faecium; planktonic E. faecium, cutoff for positive-scoring molecules 3-fold increase): 0.8
AK-based Prestwick Library Screening Results, K. pneumoniae (increase in extracellular AK activity) (K. pneumoniae; planktonic K. pneumoniae, cutoff for positive-scoring molecules 3-fold increase): 0.6
AK-based Prestwick Library Screening Results, P. aeruginosa (increase in extracellular AK activity) (P. aeruginosa; planktonic P. aeruginosa, cutoff for positive-scoring molecules 3-fold increase): 0.7
AK-based Prestwick Library Screening Results, A. baumannii (increase in extracellular AK activity) ([2]; planktonic A. baumannii, cutoff for positive-scoring molecules 3-fold increase): 0.8
AK-based Prestwick Library Screening Results, E. coli (increase in extracellular AK activity) (E. coli; planktonic E. coli, […]): 0.8
AK-based Prestwick Library Screening Results, E. cloacae (increase in extracellular AK activity) (E. cloacae; planktonic E. cloacae, cutoff for positive-scoring molecules 3-fold increase): 1.2
